Efflux ratio data for 20 molecules are collected here from patent US11560372B2, “Heterocyclic compounds useful as modulators of acetylcholine receptors” (TAKEDA PHARMACEUTICAL COMPANY LIMITED, priority 2017, dated 2023).

T1 sequence (P08183 whole entry): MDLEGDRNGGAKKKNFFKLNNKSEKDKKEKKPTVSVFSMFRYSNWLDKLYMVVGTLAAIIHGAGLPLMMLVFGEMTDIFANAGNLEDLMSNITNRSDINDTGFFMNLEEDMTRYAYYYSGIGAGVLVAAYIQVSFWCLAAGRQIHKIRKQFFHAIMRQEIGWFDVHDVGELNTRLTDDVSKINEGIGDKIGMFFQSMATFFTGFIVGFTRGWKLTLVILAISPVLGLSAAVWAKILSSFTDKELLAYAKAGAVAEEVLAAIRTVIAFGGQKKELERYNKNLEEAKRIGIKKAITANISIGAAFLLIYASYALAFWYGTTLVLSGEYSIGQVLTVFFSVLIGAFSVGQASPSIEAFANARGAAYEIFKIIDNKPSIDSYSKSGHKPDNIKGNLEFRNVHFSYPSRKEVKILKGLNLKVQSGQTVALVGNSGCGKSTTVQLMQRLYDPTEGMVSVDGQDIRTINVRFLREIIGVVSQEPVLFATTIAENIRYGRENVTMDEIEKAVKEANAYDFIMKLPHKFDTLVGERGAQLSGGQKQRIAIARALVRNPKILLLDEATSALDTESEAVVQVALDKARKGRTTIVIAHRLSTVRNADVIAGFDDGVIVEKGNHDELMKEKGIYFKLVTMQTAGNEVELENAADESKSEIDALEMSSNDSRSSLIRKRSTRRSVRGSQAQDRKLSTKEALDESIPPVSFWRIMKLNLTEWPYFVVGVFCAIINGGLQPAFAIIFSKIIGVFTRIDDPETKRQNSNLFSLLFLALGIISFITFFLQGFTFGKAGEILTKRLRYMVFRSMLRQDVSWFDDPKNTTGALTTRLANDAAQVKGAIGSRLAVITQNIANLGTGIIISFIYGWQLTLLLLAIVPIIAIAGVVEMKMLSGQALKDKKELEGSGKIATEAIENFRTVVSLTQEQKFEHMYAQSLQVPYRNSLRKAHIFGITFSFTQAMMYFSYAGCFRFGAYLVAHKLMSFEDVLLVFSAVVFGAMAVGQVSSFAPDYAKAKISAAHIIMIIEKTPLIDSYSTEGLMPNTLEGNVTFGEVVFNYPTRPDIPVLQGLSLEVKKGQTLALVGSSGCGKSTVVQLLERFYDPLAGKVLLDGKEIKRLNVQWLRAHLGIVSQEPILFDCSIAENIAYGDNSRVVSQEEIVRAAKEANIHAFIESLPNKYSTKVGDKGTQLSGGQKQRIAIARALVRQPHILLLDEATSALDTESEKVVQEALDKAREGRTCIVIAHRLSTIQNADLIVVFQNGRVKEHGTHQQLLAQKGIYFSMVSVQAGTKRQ

The series concerns the target T1, MDR1 (Homo sapiens, UniProt P08183).
T1 construct: expressed in transfected cells
The series can be described thus: MDR1 membrane permeability test. The series is classed as in vitro ADME. Particulars: pH 7.4, efflux ratio (ER), Papp B to A / A to B, human MDR1-expressing LLC-PK1 cells, read-out: MDR1 substrate screening 1 μM (MDRSUB1)/Ratio (NUMBER). How it is done: MDR1 Membrane Permeability Test
When MDR1 is expressed in excess in LLC-PK1 cell, which is a polar cell, MDR1 is localized in apical membrane (A), thus promoting transcellular transport from the basement membrane side (B) toward direction A. When a ratio to the transcellular transport in the opposite direction is taken and a ratio to a control cell in which a mock vector has been introduced is further taken, an efflux ratio of MDR1 to simple diffusion (corrected efflux ratio) is calculated. Similarly, when a brain/plasma concentration ratio in Mdr1(−/−) mouse is divided by a brain/plasma concentration ratio in wild-type mouse, an efflux ratio of Mdr1 to simple diffusion in BBB (Kp, brain ratio, higher value means lower central nervous system permeability) is calculated. Adachi Y. et al. (Reference 1) has reported a positive correlation between corrected efflux ratio and Kp, brain ratio (FIG. 5(C)), and efflux ratio in MDR1 expressing cell and Kp, brain ratio (FIG. 5(B)).
To confirm the central nervous system permeability of the compounds of the present invention, a MDR1 membrane permeability test was performed by the following method.
Human MDR1-expressing LLC-PK1 cells were cultured according to the report of Takeuchi et al. (Reference 2). Human MDR1-expressing LLC-PK1 cells were cultured in 10% fetal bovine serum (Invitrogen), 500 μg/ml G418 (Invitrogen), 150 ng/ml colchicine-containing M199 medium (Invitrogen) under 5% CO2 conditions at 37° C.
Transcellular transport was performed according to the report of Sugimoto et al. (Reference 3). The cells were cultured for 3 days on HTS Transwell (registered trademark) 96 well permeable support (pore size 0.4 μm, 0.143 cm^2 surface area, Corning Life Sciences) having polyethylene terephthalate membrane on which the cells had been seeded at 3.45×10^4 cells/well. After preincubation in M199 medium (containing 10 mmol/L HEPES, 1% BSA, pH 7.4) for 30 min, a drug solution (10 μmol/L digoxin, 200 μmol/L LY, […]) dissolved in M199 medium was added to the apical side or basolateral side of the Transwell by 75 or 250 μL each and the cells were cultured under 5% CO2 conditions at 37° C. After 1 hr, the sample was collected from the side opposite to the side where the drug solution was added, and the concentration of the test compound was measured by LC-MS/MS. As an internal standard substance, 100 ng/mL alprenolol and diclofenac were used. The analysis conditions were as follows.
Papp, A to B and Papp, B to A (apparent permeability) were calculated from the formula (1), and the efflux ratio (ER) was calculated from the formula (2).
For the molecule `Cc1c(Cc2ccc(C(=O)NC(C)(C)CO)cc2)cc2c(=O)n([C@H]3CCOC[C@@H]3O)cnc2c1C` [Example 48, 1,5-anhydro-2,3-dideoxy-3-(6-(4-((1-hydroxy-2-methylpropan-2-yl)carbamoyl)benzyl)-7,8-dimethyl-4-oxoquinazolin-3 (4H)-yl)-L-threo-pentitol], the efflux ratio at 1 hr, 1 μM was 24.
With `Cc1c(Cc2ccc(C(=O)NC3CC3)cc2)cc2c(=O)n([C@H]3CCOC[C@@H]3O)cnc2c1C` [Example 44, 1,5-anhydro-3-(6-(4-(cyclopropylcarbamoyl)benzyl)-7,8-dimethyl-4-oxoquinazolin-3 (4H)-yl)-2,3-dideoxy-L-threo pentitol], the efflux ratio at 1 hr, 1 μM stood at 22.
`COc1cc2ncn([C@H]3CCOC[C@@H]3O)c(=O)c2cc1Cc1ccc(-c2ccn(C)n2)nc1` [Example 63, 1,5-anhydro-2,3-dideoxy-3-(7-methoxy-6-((6-(1-methyl-1H-pyrazol-3-yl)pyridin-3-yl)methyl)-4-oxoquinazolin-3 (4H)-yl)-L-threo-pentitol]: the efflux ratio at 1 hr, 1 μM came to 35.
As for `CNC(=O)c1ccc(Cc2cc3c(=O)n([C@H]4CCOC[C@@H]4O)cnc3c(F)c2C)cc1F` [Example 21, 1,5-anhydro-2,3-dideoxy-3-(8-fluoro-6-(3-fluoro-4-(methylcarbamoyl)benzyl)-7-methyl-4-oxoquinazolin-3(4H)-yl)-L-threo-pentitol], the efflux ratio at 1 hr, 1 μM was found to be 20.
Take `Cc1c(Cc2ccc(C(=O)N3CC(C(F)F)C3)cc2)cc2c(=O)n([C@H]3CCOC[C@@H]3O)cnc2c1C` [Example 52, 1,5-anhydro-2,3-dideoxy-3-(6-(4-((3-(difluoromethyl)azetidin-1-yl)carbonyl)benzyl)-7,8-dimethyl-4-oxoquinazolin-3 (4H)-yl)-L-threo-pentitol]: the efflux ratio at 1 hr, 1 μM amounted to 18.
As for `Cc1c(Cc2ccc(-c3cn(C)nn3)nc2)cc2c(=O)n([C@H]3CCOC[C@@H]3O)cnc2c1Cl` [Example 14, 1,5-anhydro-3-(8-chloro-7-methyl-6-((6-(1-methyl-1H-1,2,3-triazol-4-yl)pyridin-3-yl)methyl)-4-oxoquinazolin-3(4H)-yl)-2,3-dideoxy-L-threo-pentitol], the efflux ratio at 1 hr, 1 μM was determined as 22.
With `CNC(=O)c1ccc(Cc2cc3c(=O)n([C@H]4CCOC[C@@H]4O)nnc3c(C)c2C)cc1F` [Example 55, 1,5-anhydro-2,3-dideoxy-3-(6-(3-fluoro-4-(methylcarbamoyl)benzyl)-7,8-dimethyl-4-oxo-1,2,3-benzotriazin-3 (4H)-yl)-L-threo-pentitol], the efflux ratio at 1 hr, 1 μM is 3.2.
With `Cc1c(Cc2ccc(-c3cn(C)nn3)cc2)cc2c(=O)n([C@H]3CCOC[C@@H]3O)nnc2c1Cl` [Example 20, 1,5-anhydro-3-(8-chloro-7-methyl-6-(4-(1-methyl-1H-1,2,3-triazol-4-yl)benzyl)-4-oxo-1,2,3-benzotriazin-3(4H)-yl)-2,3-dideoxy-L-threo-pentitol], the efflux ratio at 1 hr, 1 μM came to 2.9.
Turning to `Cc1c(Cc2ccc(-n3cccn3)cc2)cc2c(=O)n([C@H]3CCOC[C@@H]3O)nnc2c1C` [Comparative Example 2, 3-((3R,4S)-3-hydroxytetrahydro-2H-pyran-4-yl)-7,8-dimethyl-6-(4-(1H-pyrazol-1-yl)benzyl)-1,2,3-benzotriazin-4(3H)-one, reference compound], the efflux ratio at 1 hr, 1 μM was determined as 1.3.
For `CNC(=O)c1ccc(Cc2cc3c(=O)n([C@H]4CCOC[C@@H]4O)cnc3cc2OC)cc1F` [Example 57, 1,5-anhydro-2,3-dideoxy-3-(6-(3-fluoro-4-(methylcarbamoyl)benzyl)-7-methoxy-4-oxoquinazolin-3 (4H)-yl)-L-threo-pentitol], the efflux ratio at 1 hr, 1 μM stood at 16.
Take `COC(C)(C)CNC(=O)c1ccc(Cc2cc3c(=O)n([C@H]4CCOC[C@@H]4O)cnc3c(C)c2C)cc1` [Example 31, 1,5-anhydro-2,3-dideoxy-3-(6-(4-((2-methoxy-2-methylpropyl)carbamoyl)benzyl)-7,8-dimethyl-4-oxoquinazolin-3 (4H)-yl)-L-threo-pentitol]: the efflux ratio at 1 hr, 1 μM was 12.
The figure for `Cc1c(Cc2ccc(-c3cn(C)nn3)cc2)cc2c(=O)n([C@H]3CCOC[C@@H]3O)cnc2c1Cl` [Example 15, 1,5-anhydro-3-(8-chloro-7-methyl-6-(4-(1-methyl-1H-1,2,3-triazol-4-yl)benzyl)-4-oxoquinazolin-3(4H)-yl)-2,3-dideoxy-L-threo-pentitol] is 9.7; for `Cc1ccc(Cc2cc3c(=O)n([C@H]4CCOC[C@@H]4O)cnc3c(Cl)c2C)cn1` [Example 16, 1,5-anhydro-3-(8-chloro-7-methyl-6-((6-methylpyridin-3-yl)methyl)-4-oxoquinazolin-3(4H)-yl)-2,3-dideoxy-L-threo-pentitol] it is 6.8.
In the case of `Cc1c(Cc2ccc(C(=O)NCCN3CCCC3)c(F)c2)cc2c(=O)n([C@H]3CCOC[C@@H]3O)cnc2c1C` [Example 78, 1,5-anhydro-2,3-dideoxy-3-(6-(3-fluoro-4-((2-(pyrrolidin-1-yl)ethyl)carbamoyl)benzyl)-7,8-dimethyl-4-oxoquinazolin-3 (4H)-yl)-L-threo-pentitol], the efflux ratio at 1 hr, 1 μM stood at 56.
Then `Cc1c(Cc2ccc(C(=O)N3CC(O)C3)cc2)cc2c(=O)n([C@H]3CCOC[C@@H]3O)cnc2c1C` [Example 40, 1,5-anhydro-2,3-dideoxy-3-(6-(4-((3-hydroxyazetidin-1-yl)carbonyl)benzyl)-7,8-dimethyl-4-oxoquinazolin-3 (4H)-yl)-L-threo-pentitol], with 12.
Consider `Cc1c(Cc2ccc(C(=O)NCCCF)cc2)cc2c(=O)n([C@H]3CCOC[C@@H]3O)cnc2c1C` [Example 34, 1,5-anhydro-2,3-dideoxy-3-(6-(4-((3-fluoropropyl)carbamoyl)benzyl)-7,8-dimethyl-4-oxoquinazolin-3 (4H)-yl)-L-threo-pentitol], for which the efflux ratio at 1 hr, 1 μM worked out at 20.
`Cc1c(Cc2ccc(C(=O)N[C@H]3CCOC[C@@H]3O)c(F)c2)cc2c(=O)n([C@H]3CCOC[C@@H]3O)cnc2c1C` [Example 88, 2-fluoro-N-((3R,4S)-3-hydroxytetrahydro-2H-pyran-4-yl)-4-((3-((3R,4S)-3-hydroxytetrahydro-2H-pyran-4-yl)-7,8-dimethyl-4-oxo-3,4-dihydroquinazolin-6-yl)methyl)benzamide]: the efflux ratio at 1 hr, 1 μM came out at 16.
For `Cc1c(Cc2ccc(C(=O)NCC(=O)N(C)C)cc2)cc2c(=O)n([C@H]3CCOC[C@@H]3O)cnc2c1C` [Example 30, 1,5-anhydro-2,3-dideoxy-3-(6-(4-((2-(dimethylamino)-2-oxoethyl)carbamoyl)benzyl)-7,8-dimethyl-4-oxoquinazolin-3 (4H)-yl)-L-threo-pentitol], the efflux ratio at 1 hr, 1 μM was 24.
In the case of `Cc1c(Cc2ccc(C(=O)NCCCS(C)(=O)=O)c(F)c2)cc2c(=O)n([C@H]3CCOC[C@@H]3O)cnc2c1C` [Example 70, 1,5-anhydro-2,3-dideoxy-3-(6-(3-fluoro-4-((3-(methylsulfonyl)propyl)-carbamoyl)benzyl)-7,8-dimethyl-4-oxoquinazolin-3 (4H)-yl)-L-threo-pentitol], the efflux ratio at 1 hr, 1 μM was 13.
`CCNC(=O)c1ccc(Cc2cc3c(=O)n([C@H]4CCOC[C@@H]4O)cnc3c(C)c2C)cc1` [Example 28, 1,5-anhydro-2,3-dideoxy-3-(6-(4-(ethylcarbamoyl)benzyl)-7,8-dimethyl-4-oxoquinazolin-3 (4H)-yl)-L-threo-pentitol]: the efflux ratio at 1 hr, 1 μM is 11.
